{"source": "paper PMC9609692", "about": "“Alternative Methotrexate Oral Formulation: Enhanced Aqueous Solubility, Bioavailability, Photostability, and Permeability” (Pharmaceutics, 2022)", "key": {"[1]": {"assay": "Phase solubility study of MTX in cyclodextrin solutions", "assay_type": "physicochemical", "conditions": "MTX with the cyclodextrin, aqueous solution, 25 °C, 1:1 complex", "procedure": "The degree of complexation between MTX and β-CDs was determined through phase solubility experiments, as established by Higuchi and Conners. Briefly, an excess of MTX was added to the 10 mL aqueous solution of increasing concentrations (0 to 15 mM) containing each of β-CD, HP-β-CD, M-β-CD, and DM-β-CD. The samples tubes were then vortexed for a few seconds and placed in a water bath maintained at 100 rpm in 25 °C for 5 days (Maxturdy-30; Daihan Scientific, Wonju, Korea) to obtain the saturated complex suspension. The suspension samples obtained were then centrifuged at 10,000 rpm for 10 min and the supernatant was collected, and filtered using a 0.45 µm syringe filter. The samples were then diluted with a mobile phase to obtain the suitable concentrations before being quantified using a HPLC system. All concentrations were made in triplicate (n = 3).\nThe outcomes of the phase solubility tests were plotted against the known CD and MTX concentration in the sample and the resulting regression profiles was used to derive the association constant (Kα). The apparent association constant (Kα) was calculated from the phase solubility curve according to the following equation:(1) Kα=D :CD/D×CD=Slope/So1−Slope\nThe complexation efficiency (CE) of the IC system was calculated from the Slope of the phase solubility profiles. (2) CE=D :CD/CD=So×Kα=Slope/1−Slope"}, "[2]": {"assay": "In vivo pharmacokinetic study after oral administration", "set-up": "species or system Sprague-Dawley rats", "conditions": "rats, equiv. 20 mg/kg MTX, n = 6", "procedure": "To assess the in vivo pharmacokinetic parameters of free MTX and MTX-CD IC formulations, 30 male Sprague-Dawley rats (6–8 weeks old, weighing 280 ± 20 g) were used (Nara Biotech., Seoul, Korea). All the animals were fed with a normal laboratory diet and water and left for acclimatization in a laboratory environment for 3 days at 23–25 °C/50–55% RH. Care and handling of animals complied with the provisions of guidelines defined and agreed upon by the Institutional Animal Care and Use Committee at the Kyungpook National University (permit number. 2019-0054).\nBefore the experiment, the animals were divided into five groups with 6 animals per group and made to fast overnight. Each rat, anesthetized with ether, was fixed on a surgical board in the supine position by a thread. A polyethylene tube containing 50 IU/mL of heparin in saline was inserted into the right femoral artery of the rat for cannulation. Then, either 1 mL aqueous suspension of free MTX or the four MTX-CD IC formulations (Equiv. to 20 mg/kg of MTX) was administered orally to each of the rats using oral gavage. Blood samples (~0.3 mL) were drawn from the planted tube at various time periods of 5, 15, 30, 60, 120, 240, 480, 720, and 1440 min after the oral administration. The samples were then immediately transferred into heparin-containing microtubes and centrifuged at 10,000 rpm for 10 min to extract the plasma. The extracted plasma samples were transferred to other microtubes and stored at −20 °C until further analysis by HPLC.\nPlasma (90 μL) was mixed with 10 μL of theophylline solution (1000 μg/mL in MeOH) as the internal standard and 100 μL of methanol, respectively. The samples (200 μL) were then centrifuged at 13,000 rpm for 10 min and the upper clear supernatant layer was drawn and injected into the HPLC system (20 μL) for the quantification of MTX. In addition, the blood samples drawn at pre-dose (0 h) were used to draw a six-point calibration plot. The Slope of the graph was linear with R^2 = 0.995 over the range of 25–2000 ng/mL. The mobile phase composition, flow rate, analytical column used, and UV wavelength of the HPLC method was similar to that described in Section 2.3. The pharmacokinetic (PK) parameters such as maximal plasma concentration (Cmax), time to reach Cmax (Tmax), were obtained from the plasma concentration vs. time plots. Moreover, the area under the plasma concentration vs. time curve (AUC0–∞) was calculated using the linear trapezoidal summation rule and elimination half-life (t1/2), and elimination rate constant (Kel) were obtained using non-compartmental model WinNonlin software (Pharsight Corp., Mountain View, CA, USA). Differences in the PK parameters were assessed with the one-way ANOVA test and a p value of less than 0.05 (p < 0.05) was considered statistically significant."}, "[3]": {"assay": "Particle size distribution by laser diffraction", "assay_type": "physicochemical", "conditions": "powder", "procedure": "The complete particle size distribution of free MTX powder and all four MTX-CD IC formulations was investigated by laser diffraction (Mastersizer 3000; Malvern Instruments, Malvern, UK). The particle size/distribution is expressed as Dx10, Dx50, and Dx90, taken from the cumulative distribution, where the particle diameters are measured at the 10th, 50th, and 90th percentiles, respectively. The experiments were performed in triplicate."}, "[4]": {"assay": "In vitro Caco-2 permeation experiment", "assay_type": "in vitro ADME", "conditions": "human, Caco-2 monolayer, 50 µg/mL MTX", "procedure": "The in vitro permeability of MTX and MTX/DM-β-CD formulation was evaluated using Caco-2 cells (passage no 45) and performed like the previously reported method. The cells were seeded (5 × 10^5 cells/well) onto filter inserts from 12-well transwell plates and grown at 37 °C with 5% CO2 for 24 h. The cells were then cultured for three weeks, with the media being replaced on alternate days. Caco-2 cells with TEER ≥ 500 Ω·cm^2 were used in this experiment, which is indicative of adequate monolayer formation.\nTo evaluate the A to B transfer, the medium from each well was replaced with prewarmed HBSS (washing of monolayer) and maintained at 37 °C for 15 min. The HBSS solution on both sides of the cell monolayer was removed by decanting and aspiration from the lower end of the plate well. Then, 0.5 mL of HBSS (pH 7.4) medium containing 50 µg/mL of MTX alone or eqvt. concentration of MTX/DM-β-CD formulation was placed to the dosing compartment (A) and 1.5 mL of fresh HBSS in the receiving compartment (B). […] MTX was quantified at m/z 455.2 ⟶ 308.1 while berberine at m/z 336.1 ⟶ 320.0.\nThe apparent permeability coefficient (Papp, cm/s) was calculated as:(3) Papp=(dQ/dt)/(C0×A)\nThe efflux ratio (ER) was calculated as:(4) ER=Papp (B→A)/Papp (A→B) where, Papp (B → A) and Papp (A → B) represents the apparent permeability of the investigated formulations."}, "[5]": {"conditions": "for doses >40 mg/m^2; cited from earlier work"}, "[6]": {"conditions": "cited from earlier work"}, "[7]": {"assay": "Photostability assessment", "assay_type": "physicochemical", "conditions": "powder, 20 days, 25 °C/60% RH, 1.2 million lux·hr", "procedure": "The free MTX powder and the prepared IC formulations were subjected to UV irradiation for a period of 20 days. The powdered samples were spread over the bottom surface of transparent glass vials and stored at 25 °C/60% RH in a photostability chamber (Model 6545-2; Caron, Marietta, OH, USA). There, the samples were exposed to a light source of 1.2 million lux·hr intensity. At scheduled time intervals, a few mg of the sample was drawn, and assayed for the drug content by HPLC method, as described above. At the end of the study period, the samples were physically inspected for any physical changes on the stability of MTX."}, "Caco-2 cells [8]": {"system": "Caco-2 cells", "assay": "MTT cytotoxicity assay", "assay_type": "cell-based, human", "conditions": "up to 200 µM, 24 h incubation", "procedure": "An MTT assay was used to assess the potential cytotoxic behavior of MTX and MTX/DM-β-CD on human intestinal epithelial cancer cells (Caco-2). The Caco-2 cells were grown in DMEM supplemented with 10% FBS, 1% v/v sodium pyruvate, L-glutamine, penicillin, and MEM non-essential amino acids. The cells (2 × 10^4 cells/well) were then seeded onto 96-well transwell plates and incubated at 37 °C with 5% CO2 for 24 h. New medium containing the tested formulations i.e., MTX and MTX/DM-β-CD (IC4), with varying concentrations, were added and incubated for 24 h. The culture medium was then aspirated, and the viability of the cells was determined by adding 20 μL/well of MTT solution to each 96-well plate and incubating for another 4 h. The formazan crystals were dissolved by adding 150 μL/well DMSO. The developed formazan was assayed at 570 nm, using a microplate reader with untreated cells serving as a control. All the tests were carried out in two microplates with six parallel wells each."}, "Caco-2 cells [9]": {"system": "Caco-2 cells", "set-up": "method as in PMID 29498663, PMID 31761193", "conditions": "read-out: half-maximal inhibitory concentration (IC50) against Caco-2 cells; cited from earlier work"}, "[10]": {"conditions": "male, Sprague-Dawley, rat, plasma"}}, "data": [{"compound": "2-hydroxylpropyl-β-CD [HP-β-CD]", "values": [{"measurement": "Stability Constant (Kα)", "setting": "[1]", "result": 433.56, "unit": "M⁻¹"}]}, {"compound": "COCC1OC2OC3C(COC)OC(OC4C(COC)OC(OC5C(COC)OC(OC6C(COC)OC(OC7C(COC)OC(OC8C(COC)OC(OC1C(O)C2OC)C(OC)C8O)C(OC)C7O)C(OC)C6O)C(OC)C5O)C(OC)C4O)C(OC)C3O", "note": "(stereo not drawn) [DM-β-CD, heptakis (2,6-di-O-methyl)-β-cyclodextrin]", "values": [{"measurement": "Stability Constant (Kα)", "setting": "[1]", "result": 3114.69, "unit": "M⁻¹"}]}, {"compound": "CN(Cc1cnc2nc(N)nc(N)c2n1)c1ccc(C(=O)N[C@@H](CCC(=O)O)C(=O)O)cc1", "note": "[MTX, Methotrexate]", "values": [{"measurement": "AUC", "setting": "[2]; [10]", "result": "1740 ± 295", "unit": "ng·h/mL"}, {"measurement": "Tmax", "setting": "[2]; [10]", "result": "1.13 ± 0.23", "unit": "h"}, {"measurement": "half-life", "setting": "[2]; [10]", "result": "5.4 ± 0.72", "unit": "h"}, {"measurement": "k el", "setting": "[2]; [10]", "result": "3.61e-05", "unit": "s⁻¹"}, {"measurement": "Cmax", "setting": "[2]", "result": "265.63 ± 57.05", "unit": "ng/mL"}, {"measurement": "Dx (10)", "setting": "[3]", "result": "3.60 ± 0.48", "unit": "μm"}, {"measurement": "Dx (50)", "setting": "[3]", "result": "14.03 ± 2.97", "unit": "μm"}, {"measurement": "Dx (90)", "setting": "[3]", "result": "103.73 ± 12.13", "unit": "μm"}, {"measurement": "Papp A→B at 1 h, 50 µg/mL", "setting": "[4]; HBSS pH 7.4, 1 h, read-out: Papp A to B transport", "result": "0.57 ± 0.14", "unit": "×10⁻⁶ cm/s"}, {"measurement": "efflux ratio at 1 h, 50 µg/mL", "setting": "[4]; HBSS pH 7.4, read-out: efflux ratio (B to A/A to B)", "result": 8}, {"measurement": "bioavailability", "setting": "[5]", "result": "~ 18%"}, {"measurement": "C logP", "setting": "[6]", "result": 0.53}, {"measurement": "decrease in MTX concentration after UV irradiation", "setting": "[7]", "result": "36.8 ± 1.7", "unit": "%"}, {"measurement": "cytotoxicity against Caco-2 cells", "setting": "Caco-2 cells [8]", "result": "no substantial cytotoxicity"}]}, {"compound": "CC(=O)O[C@@]12CO[C@@H]1C[C@H](O)[C@@]1(C)C(=O)[C@H](O)C3=C(C)[C@@H](OC(=O)[C@H](O)[C@@H](NC(=O)OC(C)(C)C)c4ccccc4)C[C@@](O)([C@@H](OC(=O)c4ccccc4)[C@H]21)C3(C)C", "note": "[docetaxel]", "values": [{"measurement": "IC50", "setting": "Caco-2 cells [9]", "result": 70, "unit": "µM"}]}, {"compound": "COc1cccc2c1C(=O)c1c(O)c3c(c(O)c1C2=O)C[C@@](O)(C(=O)CO)C[C@@H]3O[C@H]1C[C@H](N)[C@H](O)[C@H](C)O1", "note": "[doxorubicin]", "values": [{"measurement": "IC50", "setting": "Caco-2 cells [9]", "result": 5, "unit": "µM"}]}, {"compound": "OC[C@H]1O[C@@H]2O[C@H]3[C@H](O)[C@@H](O)[C@@H](O[C@H]4[C@H](O)[C@@H](O)[C@@H](O[C@H]5[C@H](O)[C@@H](O)[C@@H](O[C@H]6[C@H](O)[C@@H](O)[C@@H](O[C@H]7[C@H](O)[C@@H](O)[C@@H](O[C@H]8[C@H](O)[C@@H](O)[C@@H](O[C@H]1[C@H](O)[C@H]2O)O[C@@H]8CO)O[C@@H]7CO)O[C@@H]6CO)O[C@@H]5CO)O[C@@H]4CO)O[C@@H]3CO", "note": "[β-CD, β-cyclodextrin]", "values": [{"measurement": "Stability Constant (Kα)", "setting": "[1]", "result": 552.25, "unit": "M⁻¹"}]}, {"compound": "methyl-β-cyclodextrin [M-β-CD]", "values": [{"measurement": "Stability Constant (Kα)", "setting": "[1]", "result": 574.48, "unit": "M⁻¹"}]}]}
